Values of other authors, collected in article PMC11599114 (Viruses, 2024).
Read-outs that look alike come from different tables or passages of the source.

How the values were obtained:
Hendra virus(HeV) [1] = test system: Hendra virus(HeV)
Hendra virus(HeV) [2] = test system: Hendra virus(HeV); remark: listed apart in the source
[3] = test system: human parainfluenza virus 3 (HPIV3); design: method as in ref 16973588; details: HPIV3 infection, HeLa
[4] = test system: human parainfluenza virus 3 (HPIV3); design: method as in ref 16973588; details: HPIV3 fusion, HeLa
A/Roma-ISS/02/08 H1N1 = details: A/Roma-ISS/02/08 H1N1, MDCK
A/Parma0/5/06 H3N2 = details: A/Parma0/5/06 H3N2, MDCK
SARS-CoV-2 [5] = test system: SARS-CoV-2; design: method as in 3 sources; details: SARS-CoV-2 infection, Vero E6
SARS-CoV [6] = details: for inhibition: 100 µM
Dengue virus 2(DENV2) = test system: Dengue virus 2(DENV2); design: method as in ref 35663971; details: DENV2, Huh7, at 10 μM
HSV = test system: HSV; design: method as in ref 35663971; details: Huh7, at 10 μM
SARS-CoV-2 [7] = test system: SARS-CoV-2; design: method as in ref 35663971; details: SARS-CoV-2, Huh7, at 10 μM
influenza A virus(H1N1) = test system: influenza A virus(H1N1); design: method as in 2 sources
influenza A virus(H3N2) = test system: influenza A virus(H3N2); design: method as in 2 sources
influenza B virus = test system: influenza B virus; design: method as in ref 35259078; details: FluB, MDCK
SARS-CoV-2 (HKU001a) = test system: SARS-CoV-2 (HKU001a); design: method as in ref 35259078; details: Vero E6
SARS-CoV-2(Delta) = test system: SARS-CoV-2(Delta); design: method as in ref 35259078; details: Vero E6
SARS-CoV [8] = test system: SARS-CoV
HSV-1 = details: HSV-1, Vero
HSV-2 = details: HSV-2, Vero
SARS-CoV-2 [9] = details: SARS-CoV-2, Vero
HPIV-3 = details: HPIV-3, Vero
HCoV-229E [10] = details: Vero
HCoV-OC43 = details: HCoV-OC43, Vero
SARS-CoV-2 [11] = test system: SARS-CoV-2; design: method as in 3 sources; details: SARS-CoV-2 S-mediated fusion
SARS-CoV-2 [12] = test system: SARS-CoV-2; design: method as in 3 sources; details: SARS-CoV-2 PsV, Huh-7
SARS-CoV [13] = test system: SARS-CoV; remark: listed apart in the source
HCoV-229E [14] = test system: HCoV-229E

## VALDPIDISIELNKAKSDLEESKEWIRR [DRAVPe01315]
Hendra virus(HeV) [1]
  IC50: > 10 µM
Hendra virus(HeV) [2]
  IC50: > 1 µM
[3]
  IC50: > 10 µM
[4]
  IC50: > 10 µM

## TNGESTADWAKN [DRAVPe01645]
A/Roma-ISS/02/08 H1N1
  EC50: 0.4 ± 2e-05 µM
A/Parma0/5/06 H3N2
  EC50: 0.01 µM

## ELEEQVMHVLDQVSELAHELLHKLTGEELERAAYFNWWATEMMLELIKSDDEREIREIEEEARRILEHLEELARK [DRAVPe00481]
SARS-CoV-2 [5]
  IC50: 0.0155 µM

## NHEAEDLFY [DRAVPe01629]
SARS-CoV [6]
  inhibition: 30%

## MGRFKRFRKKFKKLFKKLS [DRAVPe01948]
Dengue virus 2(DENV2)
  inhibition: 50%
HSV
  inhibition: 50%
SARS-CoV-2 [7]
  inhibition: 80%

## RGAHIKGRWKSRCHRF [DRAVPe01802]
Influenza A virus(H1N1); A(H1N1), MDCK
  IC50: 3.9 µg/mL
Influenza A virus(H3N2); A(H3N2), MDCK
  IC50: 1.6 µg/mL
Influenza B virus
  IC50: 7.1 µg/mL
SARS-CoV-2 (HKU001a)
  IC50: 2.9 µg/mL
SARS-CoV-2(Delta)
  IC50: 3.9 µg/mL

## EEQAKTFLDKFNHEAEDLFYQSSGLGKGDFR [DRAVPe01632]
SARS-CoV [6]
  IC50: 0.1 µM

## GYFVQDDGEWKFTGSSYYY [DRAVPe01421]
SARS-CoV [8]
  IC50: 4 µM

## SIELNKAKSDLEESKEWIRRSNQKLDSI [DRAVPe01316]
Hendra virus(HeV) [1]
  IC50: > 10 µM
Hendra virus(HeV) [2]
  IC50: > 1 µM
[3]
  IC50: > 10 µM
[4]
  IC50: > 10 µM

## KANEGLTWNSLKDK [DRAVPe01644]
A/Roma-ISS/02/08 H1N1
  EC50: 0.001 ± 0.00015 µM

## KKKKYRNIRRPG [AVP1641]
SARS coronavirus
  Activity: 45 µg/mL

## EEQAKTFLDK [DRAVPe01627]
SARS-CoV [6]
  inhibition: 25%

## FVPWFSKFlkRIL [DRAVPe00384]
HSV-1
  IC90: 12.7 µM
HSV-2
  IC90: 12.5 µM
SARS-CoV-2 [9]
  IC90: 25.3 µM
HPIV-3
  IC90: > 50 µM
HCoV-229E [10]
  IC90: 50 µM
HCoV-OC43
  IC90: 29.2 µM

## FVPWFSKFlKRIL [DRAVPe00383]
HSV-1
  IC90: 10.5 µM
HSV-2
  IC90: 7.99 µM
SARS-CoV-2 [9]
  IC90: 12.9 µM
HPIV-3
  IC90: > 50 µM
HCoV-229E [10]
  IC90: 50 µM
HCoV-OC43
  IC90: 16.3 µM

## SLDYINVTFLDLQDEMNRLQEAIKVLNQSYINLKDI [DRAVPe00419]
SARS-CoV-2 [11]
  IC50: 0.0041 ± 0.001 µM
SARS-CoV-2 [12]
  IC50: 0.0828 ± 0.0221 µM
MERS-CoV
  IC50: 0.0052 µM
SARS-CoV [13]
  IC50: 0.25 µM
HCoV-NL63
  IC50: 0.416 ± 0.228 µM
HCoV-229E [14]
  IC50: 2.01 ± 0.698 µM

## VANDPIDISIELNKAKSDLEESKEWIRRSNQKLDSD [DRAVPe01314]
Hendra virus(HeV) [1]
  IC50: > 10 µM
Hendra virus(HeV) [2]
  IC50: > 1 µM
[3]
  IC50: 1.1 µM
[4]
  IC50: 0.75 µM

## KFFRKKSVKK [DRAVPe01822]
Influenza A virus(H1N1); H1N1, MDCK
  EC50: 5.2 ± 0.9 µM
Influenza A virus(H3N2); H3N2, MDCK
  EC50: 7.36 ± 1.2 µM

## DEDLEELERLYRKAEEVAKEAKDASRRGDDERAKEQMERAMRLFDQVFELAQELQEKQTDGNRQKATHLDKAVKEAADELYQRVR [DRAVPe00480]
SARS-CoV-2 [5]
  IC50: 0.035 µM
